From patent US20220073532A1, “INHIBITORS OF CGAS ACTIVITY AS THERAPEUTIC AGENTS” (BELLBROOK LABS, LLC, priority 2019, published 2022)
pIC50, pKd: −log10 of the molar value. Entries after “also recorded” stand apart in the source; their conditions may differ. Like-named read-outs stand apart in the source and are kept apart here.

Columns and labels:
[1] = test system: IRF3-driven Luc expression in THP-1 Dual cells; assay: THP-1 Dual IRF3-Luc reporter assay; type: cell-based, human; conditions: for inhibition of IRF3-dependent Luc expression: THP-1 Dual cells, induced by DNA or cGAMP; for cGAS-dependent cellular activity: human monocyte cell line THP-1
Procedure: (§1) IFN induction in human monocyte cell lines: The human monocyte cell line THP-1 gives a robust cGAS/STING-dependent type I IFN response and has been used extensively for studies on the pathway. Typically, cells are stimulated by transfection with dsDNA and gene expression is assessed using an ELISA for IFNβ, a reporter gene assay, and/or cGAS/STING pathway markers such as STING phosphorylation. These assays were validated using the TBK1 inhibitor, BX-795, which acts downstream of cGAS/STING, as a probe; THP-1 Dual cells (Invivogen, San Diego) are used as the reporter cell line for routine compound testing (FIG. 5A). These assays were optimized, including equalizing responses with transfected DNA and cGAMP and comparing responses between undifferentiated cells and cells that have been differentiated to macrophages (which show little difference). […] Stimulation of THP-1 Dual cells with damage-associated molecular pattern molecules (DAMPs) that act through pattern recognition receptors other than cGAS provides another way to confirm the specificity of putative cGAS inhibitors.

[2] = test system: NFκB-driven SEAP expression in THP-1 Dual cells; assay: THP-1 Dual NFκB-SEAP reporter assay; type: cell-based, human
Procedure: as §1

THP1 cGAS KO cells = assay: Specificity test in THP-Dual cGAS knockout cells; type: cell-based, human; conditions: LPS-stimulated, cGAS KO
Description: FIG. 5 includes (A) a schematic showing the THP1 dual-cell reporter system: secreted luciferase reports on IRF3-driven transcription; secreted alkaline phosphatase reports on NFκB-driven transcription, both downstream of cGAS/STING. THP-Dual cGAS knockout cells are used to test for non-specific effects; (B) a plot of the dose response for inhibition of Luc expression by Compound 15; (C) a plot of the dose response for inhibition of Luc expression by the TBK1 inhibitor, BX-795; and (D) a plot of the dose response for inhibition of SEAP expression by Compound 15.
as §1

cGAS [3] = target: T1, cGAS (Homo sapiens, UniProt Q8N884); assay: SPR / biophysical binding to cGAS; conditions: SPR; read-out: Kd determined with SPR
T1 sequence (Q8N884 whole entry): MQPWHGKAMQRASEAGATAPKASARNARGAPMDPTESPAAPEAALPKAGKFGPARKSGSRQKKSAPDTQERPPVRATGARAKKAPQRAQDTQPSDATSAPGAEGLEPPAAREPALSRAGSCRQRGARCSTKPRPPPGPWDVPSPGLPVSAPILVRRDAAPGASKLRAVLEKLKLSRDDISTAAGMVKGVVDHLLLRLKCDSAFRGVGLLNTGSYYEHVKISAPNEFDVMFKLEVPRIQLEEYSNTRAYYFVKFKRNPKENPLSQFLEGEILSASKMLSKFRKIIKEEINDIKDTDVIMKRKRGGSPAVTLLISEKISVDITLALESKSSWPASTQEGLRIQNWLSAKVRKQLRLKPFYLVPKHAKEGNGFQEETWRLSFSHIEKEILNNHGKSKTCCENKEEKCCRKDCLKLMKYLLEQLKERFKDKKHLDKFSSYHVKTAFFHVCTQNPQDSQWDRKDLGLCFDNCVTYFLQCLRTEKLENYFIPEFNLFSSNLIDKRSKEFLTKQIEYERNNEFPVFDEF
Description: Following confirmation of hits at three concentrations and removal of compounds with visually evident reactivity or metabolic liabilities, non-stoichiometric inhibitors, aggregators, DNA intercalators and redox-active compounds were triaged (FIG. 2E) using established assays. […] Initial SAR based on more than 100 commercially available analogs provided additional confidence that the compounds were bonafide inhibitors, and informed potential scaffold hops and toleration for modifications.
A highly efficient platform for preclinical drug discovery (FIG. 3) was assembled, providing for development of cGAS inhibitors, which is improved by the addition of a powerful computational modeling method and in vivo PK studies (FIG. 3). […]
Biochemical and biophysical analysis: Potency and MOA studies, including Mn^2+ sensitivity, are performed using the cGAS enzymatic assay. […] Competition with ATP and GTP is assessed by comparing basal IC50 values to those in the presence of saturating ATP or GTP, and subsequently confirmed by measuring velocity vs. substrate at varying ATP or GTP levels. […]

cGAS [4] = target: T1, cGAS; assay: cGAS enzymatic assay (FP/TR-FRET detection of cGAMP); type: biochemical; design: The cGAS assay was used to screen 100,000 compounds with full-length human cGAS; 6xHis; made in house
Procedure: Some exemplary compounds of the disclosure were tested for inhibition of cGAS (30 nM). The results are provided in Table 1 where “A” indicates an IC50 of less than 100 nM, “B” indicates an IC50 of greater than 100 nM and less than 500 nM, “C” indicates an IC50 of greater than 500 nM and less than 1 μM, “D” indicates an IC50 of greater than 1 μM and less than 10 μM, and “E” indicates an IC50 of greater than 10 μM.
A homogenous cGAS enzymatic assay was developed with fluorescence polarization (FP) and time-resolved Forster resonance energy transfer (TR-FRET) readouts (FIG. 2A-2D). The cGAS assay was used to screen 100,000 compounds with full-length human cGAS (FIG. 2E), resulting in the identification of the novel chemotype of the disclosure, two of which are further developed in a structure-driven hit-to-lead study (Table 3, below). The assay performance was robust, as indicated by respective Z and Z′ values of 0.59 and 0.63 in the screen; compounds with polarization values greater than three SDs from the mean were considered hits; a scatterplot from 10 plates (3,200 compounds) is shown in FIG. 2D.
Biochemical and biophysical analysis: Potency and MOA studies, including Mn^2+ sensitivity, are performed using the cGAS enzymatic assay. Dose response experiments are used to determine IC50 values under basal conditions (5 mM MgCl2, 100 μM ATP/GTP), and with the addition of physiological levels of Mn (0.2 mM) using human and mouse cGAS. Ligand optimization is driven by potency with the human enzyme; potency with mouse cGAS informs selection of an appropriate disease model for efficacy studies. Competition with ATP and GTP is assessed by comparing basal IC50 values to those in the presence of saturating ATP or GTP, and subsequently confirmed by measuring velocity vs. substrate at varying ATP or GTP levels. Inhibitor residence times (1/koff) are used as a key parameter for prioritizing compounds and driving SAR, because a longer residence time often results from an allosteric mechanism, and can also correlate with improved cellular activity. The cGAS enzymatic assay is used with the jump dilution method to measure residence times (inhibitor dissociation rates), as described for kinases using the very similar ADP assay. Biophysical methods, including SPR and TSA, are used as orthologous methods for residence time measurements and kd estimates.

[5] = test system: IFNβ expression in THP-1 cells; assay: IFNβ ELISA in THP-1 cells; type: cell-based, human
Procedure: as §1

[6] = test system: interferon-sensitive gene (ISG) expression in THP1-dual cells; assay: ISG mRNA expression by RT-PCR in THP1-dual cells; type: cell-based, human; conditions: 24 hours, normalized to β-actin
Procedure: FIG. 6A illustrates activity of IFNβ expression of the compounds of disclosure. FIG. 6B illustrates inhibition of reporter genes from cGAS/STING-driven promoters of compound 28 in THP1-dual cells. FIG. 6C illustrates the ISG mRNA expression of compound 28 in THP1-dual cells. Compound 28 in concentration of 200 μM was evaluated after 24 hours. The results were normalized to β-actin.

[7] = cGAS (30 nM), with Mn^2+, read-out: Inhibition cGAS + Mn^2+
[8] = cGAS (30 nM), read-out: Inhibition cGAS

## O=C(NCCCNc1nc(Nc2cccc(NC(=O)N3CCCC3)c2)ncc1I)c1cccs1 [BX-795, reference compound]
[1]
  inhibition of IRF3-dependent Luc expression: dose-dependent inhibition
[2]; THP-1 Dual cells
  inhibition of NFκB-driven SEAP expression: did not inhibit
THP1 cGAS KO cells
  effect on IRF3-driven Luc expression in THP1 cGAS KO cells stimulated with LPS: inhibited with an expected potency

## CCc1nc(N2CCC[C@H]2C(=O)O)c2oc3ccccc3c2n1 [Compound 1, (2-ethylbenzofuro[3,2-d]pyrimidin-4-yl)-L-proline]
cGAS [3]
  pKd: 5.62
cGAS [4]; 5 mM Mg^2+, 0.2 mM Mn^2+, read-out: IC50 (5 mM Mg^2+, 0.2 mM Mn^2+)
  pIC50: 4.72
cGAS [4]; 5 mM Mg^2+, read-out: IC50 (5 mM Mg^2+)
  pIC50: 5.59
cGAS [4]; [7]
  pIC50: < 5.00
cGAS [4]; [8]
  pIC50: 5.00 to 6.00
cGAS [4]; read-out: IC50 in the cGAS enzymatic assay
  pIC50: 5.90

## Cc1nc(N2C[C@@H](CC(=O)Nc3ccncc3)C[C@H]2C(=O)O)c2oc3ccccc3c2n1 [Compound 28, (2S,4R)-1-(2-methylbenzofuro[3,2-d]pyrimidin-4-yl)-4-(2-oxo-2-(pyridin-4-ylamino)ethyl)pyrrolidine-2-carboxylic acid]
[1]; Homo sapiens, THP1-dual cells, read-out: Cellular IRF3-Luc IC50
  pIC50: 4.70
[2]; Homo sapiens, THP1-dual cells, read-out: Cellular NFκB-SEAP IC50
  pIC50: 5.05
[5]
  inhibition of IFNβ expression: reproducible inhibition; also recorded: inhibit IFNβ expression
  specificity: DNA- versus cGAMP-stimulated cells: specific for DNA-stimulated cells; also recorded: more potent inhibition of cells stimulated with DNA than those stimulated with cGAMP
[5]; Homo sapiens, read-out: Cellular IFNβ ELISA IC50
  pIC50: 4.89
[6]
  ISG expression (fold decrease @ 200 μM): 2-3×
cGAS [4]; 100 μM ATP/GTP, read-out: Enzymatic FP Std (100 μM ATP/GTP) IC50
  pIC50: 6.45
cGAS [4]; 1 mM ATP/GTP, read-out: Enzymatic FP Physiological (1 mM ATP/GTP) IC50
  pIC50: 5.49
cGAS [4]; [8]
  pIC50: 6.30 to 7.00

## Cc1nc(N2C[C@@H](Nc3n[nH]cc3C3CC3)C[C@H]2C(=O)O)c2oc3ccccc3c2n1 [Compound 53, (2S,4S)-4-((4-cyclopropyl-1H-pyrazol-3-yl)amino)-1-(2-methylbenzofuro[3,2-d]pyrimidin-4-yl)pyrrolidine-2-carboxylic acid]
[1]
  inhibition of IRF3-dependent Luc expression: reproducible inhibition
[5]
  inhibition of IFNβ expression: inhibit IFNβ expression
cGAS [4]; [7]
  pIC50: 5.00 to 6.00
cGAS [4]; [8]
  pIC50: 6.30 to 7.00

## Cc1nc(N2C[C@@H](Nc3n[nH]cc3-c3ccccn3)C[C@H]2C(=O)O)c2oc3ccccc3c2n1 [Compound 63, (2S,4S)-1-(2-methylbenzofuro[3,2-d]pyrimidin-4-yl)-4-((4-(pyridin-2-yl)-1H-pyrazol-3-yl)amino)pyrrolidine-2-carboxylic acid]
cGAS [4]; [7]
  pIC50: 5.00 to 6.00
cGAS [4]; [8]
  pIC50: 5.00 to 6.00

## Cc1nc(N2C[C@@H](N(C)c3n[nH]cc3C)C[C@H]2C(=O)O)c2oc3ccccc3c2n1 [Compound 64, (2S,4S)-4-(methyl(4-methyl-1H-pyrazol-3-yl)amino)-1-(2-methylbenzofuro[3,2-d]pyrimidin-4-yl)pyrrolidine-2-carboxylic acid]
cGAS [4]; [7]
  pIC50: 5.00 to 6.00
cGAS [4]; [8]
  pIC50: 5.00 to 6.00

## Cc1nc(N2C[C@@H](Cc3nnn[nH]3)C[C@H]2CO)c2oc3ccccc3c2n1 [Compound 65, ((2S,4R)-4-((1H-tetrazol-5-yl)methyl)-1-(2-methylbenzofuro[3,2-d]pyrimidin-4-yl)pyrrolidin-2-yl)methanol]
cGAS [4]; [7]
  pIC50: 5.00 to 6.00
cGAS [4]; [8]
  pIC50: 5.00 to 6.00

## Cc1nc(N2C[C@@H](NC(=O)C(C)(C)c3cn[nH]c3)C[C@H]2C(=O)O)c2oc3ccccc3c2n1 [Compound 66, (2S,4S)-4-(2-methyl-2-(1H-pyrazol-4-yl)propanamido)-1-(2-methylbenzofuro[3,2-d]pyrimidin-4-yl)pyrrolidine-2-carboxylic acid]
cGAS [4]; [7]
  pIC50: 5.00 to 6.00
cGAS [4]; [8]
  pIC50: 6.30 to 7.00

## Cc1cc(CC(=O)N[C@H]2C[C@@H](C(=O)O)N(c3nc(C)nc4c3oc3ccccc34)C2)ccn1 [Compound 67, (2S,4S)-1-(2-methylbenzofuro[3,2-d]pyrimidin-4-yl)-4-(2-(2-methylpyridin-4-yl)acetamido)pyrrolidine-2-carboxylic acid]
cGAS [4]; [7]
  pIC50: < 5.00
cGAS [4]; [8]
  pIC50: 5.00 to 6.00

## Cc1nc(N2CC[C@H]2C(=O)O)c2oc3ccccc3c2n1 [Compound 68, (S)-1-(2-methylbenzofuro[3,2-d]pyrimidin-4-yl)azetidine-2-carboxylic acid]
cGAS [4]; [7]
  pIC50: 5.00 to 6.00
cGAS [4]; [8]
  pIC50: 6.00 to 6.30

## Cc1nc(N2CCC[C@H]2C(=O)O)c2oc3cc(F)ccc3c2n1 [Compound 69, (7-fluoro-2-methylbenzofuro[3,2-d]pyrimidin-4-yl)-L-proline]
cGAS [4]; [7]
  pIC50: 5.00 to 6.00
cGAS [4]; [8]
  pIC50: 6.00 to 6.30

## CCN(CCO)CCCC(C)Nc1ccnc2cc(Cl)ccc12 (stereo not drawn) [hydroxychloroquine, reference compound]
[1]
  cGAS-dependent cellular activity: not observed

## CCN(CC)CCCC(C)Nc1c2ccc(Cl)cc2nc2ccc(OC)cc12 (stereo not drawn) [quinacrine, reference compound]
[1]
  cGAS-dependent cellular activity: not observed

## Cc1ccc(C(=O)Nc2ccc(S(=O)(=O)O)c3cc(S(=O)(=O)O)cc(S(=O)(=O)O)c23)cc1NC(=O)c1cccc(NC(=O)Nc2cccc(C(=O)Nc3cc(C(=O)Nc4ccc(S(=O)(=O)O)c5cc(S(=O)(=O)O)cc(S(=O)(=O)O)c45)ccc3C)c2)c1 [suramin, reference compound]
[1]
  cGAS-dependent cellular activity: not observed
